Results on 22 compounds are retold here after ChEMBL document CHEMBL4052709, “Novel analogs of N-acylhydroxyethylaminomethyl-4H-chromen-4-one scaffold as IL-5 inhibitors” (Bioorg Med Chem, 2017).

For orientation: inhibition means the change of the read-out against control, counted positive when it falls.

One test addresses T1, Interleukin-5 (Mus musculus) (UniProt P04401).
T1 sequence (whole entry): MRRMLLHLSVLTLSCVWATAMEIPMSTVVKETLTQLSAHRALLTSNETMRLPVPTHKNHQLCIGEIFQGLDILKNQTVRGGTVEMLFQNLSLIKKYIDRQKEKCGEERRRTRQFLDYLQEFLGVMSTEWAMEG
In words: Inhibition of IL-5 in mouse Y16 cells assessed as reduction in cell proliferation at 50 uM after 48 hrs by WST-1 assay relative to control. The format is cell-based.
Take `O=c1c(-c2ccc(O[C@H]3O[C@@H](CO)[C@H](O)[C@@H](O)[C@@H]3O)cc2)coc2cc(O)cc(O)c12`: the inhibition came out at 79.1%.

The target in a further test is T1, Interleukin-5 (Mus musculus). In words: Inhibition of IL-5 in mouse Y16 cells assessed as reduction in cell proliferation at 30 uM after 48 hrs by WST-1 assay relative to control. The format is cell-based. On the technique in general: Formazan colour is commonly taken as a measure of viable cells.
For `CC(C)CCOc1cccc2occ(CN(CCO)C(=O)Cc3ccccc3)c(=O)c12`, the inhibition amounted to 37%.

Take `CC(C)(C)CCOc1cccc2occ(CN(CCO)C(=O)Cc3ccccc3)c(=O)c12`: the inhibition amounted to 46%.

`CCNC(=O)N(CCO)Cc1coc2cccc(OCC3CCCCC3)c2c1=O`: the inhibition is 7%.

`CC(C)(C)CCOc1cccc2occ(CN(CCO)C(=O)Nc3ccccc3)c(=O)c12`: the inhibition stood at 47%.

For the compound `O=C(Oc1ccccc1)N(CCO)Cc1coc2cccc(OCC3CCCCC3)c2c1=O`, the inhibition is 84%.

`CC(C)NC(=O)N(CCO)Cc1coc2cccc(OCC3CCCCC3)c2c1=O`: the inhibition is 6%.

Take `CC(C)CCOc1cccc2occ(CN(CCO)C(=O)Nc3ccccc3)c(=O)c12`: the inhibition was found to be 35%.

With `O=C(Nc1ccccc1)N(CCO)Cc1coc2cccc(OCC3CCCCC3)c2c1=O`, the inhibition stood at 61%.

For `CCCC(=O)N(CCO)Cc1coc2cccc(OCC3CCCCC3)c2c1=O`, the inhibition was determined as 61%.

Take `CC(C)CCOc1cccc2occ(CN(CCO)C(=O)Oc3ccccc3)c(=O)c12`: the inhibition came to 42%.

`O=C(NCCCc1ccccc1)N(CCO)Cc1coc2cccc(OCC3CCCCC3)c2c1=O`: the inhibition stood at 95%.

Take `CC(C)(C)CCOc1cccc2occ(CN(CCO)C(=O)Oc3ccccc3)c(=O)c12`: the inhibition is 36%.

In the case of `COc1ccc(CC(=O)N(CCO)Cc2coc3cccc(OCC4CCCCC4)c3c2=O)cc1`, the inhibition was found to be 92%.

As for `CCOC(=O)N(CCO)Cc1coc2cccc(OCC3CCCCC3)c2c1=O`, the inhibition amounted to 89%.

Turning to `COc1ccc(NC(=O)N(CCO)Cc2coc3cccc(OCC4CCCCC4)c3c2=O)cc1`, the inhibition turned out to be 80%.

In the case of `CCCNC(=O)N(CCO)Cc1coc2cccc(OCC3CCCCC3)c2c1=O`, the inhibition was 15%.

As for `O=C(Cc1ccccc1)N(CCO)Cc1coc2cccc(OCC3CCCCC3)c2c1=O`, the inhibition worked out at 95%.

In the case of `O=C(Nc1ccc(Cl)cc1)N(CCO)Cc1coc2cccc(OCC3CCCCC3)c2c1=O`, the inhibition turned out to be 4%.

With `O=C(NC1CCCCC1)N(CCO)Cc1coc2cccc(OCC3CCCCC3)c2c1=O`, the inhibition is 85%.

As to `O=C(NCc1ccccc1)N(CCO)Cc1coc2cccc(OCC3CCCCC3)c2c1=O`, the inhibition is 95%.

Regarding `CCC(=O)N(CCO)Cc1coc2cccc(OCC3CCCCC3)c2c1=O`, the inhibition is 63%.
